ChEMBL document CHEMBL3507680, “University of Dundee, Gates Library screen for HepG2 cell viability”

Assay: Human HepG2 cell viability assay in 384 well format
Assay type: toxicity, cell-based
Design: dose 125 nL, time 70.5 hour; concentration not given beside the values
Details: HepG2 cells, read-out: Inhibition

Row | Structure (SMILES) | cytotoxicity at 70.5 h
1 | Cc1ncoc1C(=O)N1CCCC(C(=O)c2cccc(OC(C)C)c2)C1 (configuration not stated) | -8.43%
2 | Cc1cc(C(=O)N2CCC[C@]3(C[C@@H](OCC4CC4)CO3)C2)no1 | -11.6%
3 | Cc1cc(C(=O)N2CCC[C@]3(C[C@H](OCC4CC4)CO3)C2)no1 | -0.0994%
4 | Cc1nc(NCC2CC2)nc2c1COCC21CCN(CC(=O)N(C)C)C1 (configuration not stated) | -14.8%
5 | Cc1cccc(C(=O)N2CCn3cc(CN4CCCCC4)nc3C2)n1 | -10.3%
6 | O=C(c1cocn1)N1CCC[C@]2(C[C@@H](OCC3CC3)CO2)C1 | -7.29%
7 | C[C@H]1CN(C(=O)N(C)C)C[C@@]12CCN(c1ccsc1)C2=O | -8.12%
8 | CN(Cc1ccncc1)C1CC2(CCN(Cc3ccccn3)CC2)C1 | -6.76%
9 | CCOCC(=O)N1CC[C@@H]2O[C@@H](C)C[C@H]2C1 | -11.3%
10 | O=C(c1cccs1)N1CCC2(CC1)CN(c1cncnc1)C(=O)CO2 | -12.3%
11 | CN(C)[C@@H]1CCN(C(=O)c2ccccn2)[C@H]1Cc1ccncc1 | -13%
12 | CCOCC(=O)N1CC[C@H]2O[C@@H](C)C[C@H]2C1 | -12.8%
13 | COc1cccc(C(=O)N2CCOC3(CCCN(C(C)=O)C3)C2)c1 (configuration not stated) | -16.1%
14 | COCCC1COC2(CCN(C(=O)c3ccsc3)CC2)C1 (configuration not stated) | -12.7%
15 | COc1ccccc1C(=O)N1CCOC2(CCCN(C(C)=O)C2)C1 (configuration not stated) | -12.3%
16 | CCO[C@@H]1CCN(C(=O)c2cnc(C)cn2)[C@@H]1Cc1cnn(C)c1 | -11.6%
17 | COCCO[C@H]1CCN(C(=O)c2ccsc2)[C@H]1Cc1ccncc1 | -9.1%
18 | Cn1cc(C[C@H]2[C@@H](O)CCN2C(=O)c2ccc[nH]2)cn1 | -10.8%
19 | COCCO[C@H]1CCN(C(=O)c2cnoc2C)[C@H]1Cc1cnn(C)c1 | -5.22%
20 | Cc1ncnc2c1CCN(C(=O)c1cccn1C)CC2 | -5.38%
21 | Cn1cccc1C(=O)N1CCc2ncnc(N3CCOCC3)c2CC1 | -9.14%
22 | Cc1cc(CN2CC[C@H]3C(=O)N(c4cccnc4)CCO[C@H]3C2)no1 | -4.94%

Row | Structure (SMILES) | cytotoxicity at 70.5 h
23 | COCC1CN(C(=O)Cc2ccsc2)Cc2c1cnn2C (configuration not stated) | 25.8%
24 | O=C(c1ccoc1)N1CCn2cnc(COCC3CC3)c2C1 | 4.58%
25 | CNC(=O)[C@@]12CCO[C@@H]1CCN(S(=O)(=O)c1cc(C)cc(C)c1)C2 | -13.2%
26 | O=C(c1cccs1)N1CC[C@H]2[C@@H]1CCC(=O)N2c1cccnc1 | -11.5%
27 | Cn1cc(C[C@H]2[C@H](N3CCOCC3)CCN2C(=O)c2ccoc2)cn1 | -16.3%
28 | O=C(c1cnccn1)N1CCc2ncnc(C3CCOC3)c2CC1 (configuration not stated) | -9.35%
29 | O=C(c1ccco1)N1CC[C@@H](N2CCOCC2)[C@@H]1Cc1ccccc1 | -7.17%
30 | CNC(=O)[C@@]12CCO[C@@H]1CCN(S(=O)(=O)c1ccccc1C)C2 | -10.5%
31 | CNC(=O)[C@@]12CCO[C@@H]1CCN(S(=O)(=O)c1ccccc1)C2 | -6.28%
32 | Cn1cc(CN2CCCC3(CCN(c4cccnc4)C3=O)C2)cn1 (configuration not stated) | 20%
33 | CCOCC1CN(C(=O)c2ccco2)Cc2cnn(CC)c21 (configuration not stated) | 12.3%
34 | Cc1noc([C@@H]2CCO[C@@H]3CCN(Cc4nccs4)C[C@@H]32)n1 | 9.78%
35 | CCOCC1CN(C(=O)N2CCCC2)Cc2cnn(CC)c21 (configuration not stated) | -4.21%
36 | Cc1nnc(SCC(=O)N2CCc3[nH]nc(C4CCC4)c3C2)o1 | 8.24%
37 | COCCN(C)C(C(=O)O)c1ccc(F)c(C)c1 (configuration not stated) | -2.89%
38 | CCC(=O)N1CCCC(C(=O)NCc2noc(Cc3ccccc3)n2)C1 (configuration not stated) | -12.1%
39 | CC(C)N(CCO)C(=O)c1cc(COc2ccc3c(c2)CCCC3)on1 | -10.1%
40 | CCCNc1ncc(C2CC(=O)NCc3nc4ccccn4c32)cn1 (configuration not stated) | -8.46%
41 | Cc1cc(C)cc(C(C(=O)O)N(C)CCCN2CCOCC2)c1 (configuration not stated) | 8.9%
42 | CC(NC(=O)C1CCN(C(=O)C2CC2)CC1)c1nncn1C(C)C (configuration not stated) | -4.92%
43 | CC(C)(C)c1cc(CN2C[C@H]3CC[C@@H]2CN(Cc2ccccn2)C3)n[nH]1 | -5.84%
44 | CCc1ccc2nc(C)cc(C(=O)N[C@@H]3CNC[C@H]3O)c2c1 | 25.1%

Row | Structure (SMILES) | cytotoxicity at 70.5 h
45 | CCn1cc(CN2CCCC(c3[nH]ncc3-c3ccc(C)cc3)C2)cn1 (configuration not stated) | -16.8%
46 | O=C(c1cc(-c2ccco2)nc2c(Cl)cccc12)N1CCS(=O)(=O)CC1 | -11.9%
47 | CNC(=O)CNCC1(O)CCCN(Cc2ccc(F)c(F)c2)C1=O (configuration not stated) | 29%
48 | CC(C)CCN1CC2(CCN(C(=O)C3(C)CC3)CC2)OC1=O | -0.562%
49 | O=C(C1COc2ccccc2O1)N1Cc2cnn(CCO)c2C1 (configuration not stated) | -3.6%
50 | CS(=O)(=O)CC1CCCN(c2ncnc3c2Cc2ccccc2OC3)C1 (configuration not stated) | -9.52%
51 | CC(C)Cn1cncc1CNC1CCSC1 (configuration not stated) | 21.1%
52 | Cc1cccc(CN2CCN(C(=O)c3cc(Cl)c[nH]c3=O)CC2)c1 | -4.23%
53 | Cc1ccc2nc(C)c(C)c(C(=O)N3CCN(c4nccs4)CC3)c2c1 | -7.96%
54 | N[C@H]1CC[C@@H](Nc2nccc(CCC(F)(F)F)n2)CC1 | -2.71%
55 | CCc1nnc(CN2CCC3(CCC(=O)N(C4CCCC4)C3)CC2)o1 | -7.05%
56 | Cc1ccc2c(c1)c(CNC(=O)C1CCN(C(=O)C3CC3)CC1)nn2C | -3.75%
57 | CCn1cc(-c2c(C)c(C3CCOC(C)(C)C3)nc(N)c2C#N)cn1 (configuration not stated) | 9.87%
58 | CCc1cc(N2C[C@H](C3CC3)[C@@H](N)C2)nc(N2CCCC2)n1 | 18.8%
59 | O=C(NCCN1CCCCC1CO)c1cc(-c2ccccc2)on1 (configuration not stated) | -4.82%
60 | CC(C)c1nc(CN(C)C(=O)CCS(=O)(=O)c2ccccc2)no1 | -8.68%
61 | COc1ccc(C(=O)N2C[C@@H](O)[C@H](NCCc3ncccc3C)C2)cc1 | -10.6%
62 | N[C@H]1CN(S(=O)(=O)Cc2ccccc2)C[C@@H]1C1CC1 | -6.71%
63 | CSCC[C@@H](CO)Nc1nc(-c2ccccn2)nc2c1c(C)nn2C | -0.626%
64 | Cc1ccc(CN(C)C(=O)c2cc(Cn3ccnc3C(C)C)[nH]n2)o1 | 3.51%
65 | COCCN(CC1CC1)c1nc(CCN)nc2ccccc12 | -4.8%
66 | Cc1cnc(CNc2ncc(C)c(-c3cnn(C)c3)n2)cn1 | -14.1%

Row | Structure (SMILES) | cytotoxicity at 70.5 h
67 | COc1cc(C)cc(C(C(=O)O)N(C)CCN2CCCC2)c1OC (configuration not stated) | -2.88%
68 | CNc1ccnc(N2CC[C@@](O)(C3CCOCC3)[C@H](C)C2)n1 | -7.76%
69 | Cc1cc(C(F)(F)F)nc(CNC(=O)C2CCCCCN2C)n1 (configuration not stated) | 2.11%
70 | COc1cccc2c1OCCCN(Cc1ncccc1C(=O)O)C2 | -3.58%
71 | O=C1N(CC2CCCCC2)CCCC1(O)CN1CCc2[nH]ncc2C1 (configuration not stated) | -7.48%
72 | c1ccc(CN(Cc2ncc[nH]2)Cc2nccs2)cc1 | -14.7%
73 | Cc1cc(-c2ccc(C(C)N3CCCCC3)cc2)cnc1N (configuration not stated) | -1.07%
74 | CCc1ncc2c(n1)CN(C(=O)CC(C)NC(C)=O)C2 (configuration not stated) | -5.94%
75 | CCn1c(CN(C)C)nnc1C1CCN(Cc2ccc(Cl)cc2F)CC1 | -0.622%
76 | COc1cccc(Cn2ncnc2CCSC)c1 | -12.2%
77 | CN(Cc1ccccc1)CC1(O)CCCN(CCC2CCCCC2)C1=O (configuration not stated) | 29.6%
78 | CN1CCCN(C[C@@H]2CN(C(=O)N3CCOCC3)C[C@@H]2CO)CC1 | -3.11%
79 | Cc1cccc(C(=O)N2CCC[C@]3(C[C@@H](OCC4CC4)CO3)C2)n1 | -13.9%
80 | O=C(CC1CC1)N1CCc2ncc(Cn3cncn3)n2CC1 | -14.1%
81 | COCCC1COC2(CCN(C(=O)c3cccnc3)CC2)C1 (configuration not stated) | -13%
82 | CC(C)CCN1C2(CCN(Cc3nccs3)C2)c2ccccc2S1(=O)=O (configuration not stated) | -11.4%
83 | COCCO[C@H]1CCN(C(=O)c2ccno2)[C@H]1Cc1ccncc1 | -11.9%
84 | Cc1ccccc1C(=O)N1Cc2c(Cn3ccnc3)nn(C)c2C1 | -9.48%
85 | O=C(C1CCOC1)N1CCC2(CC1)CN(c1ncccn1)CCO2 (configuration not stated) | 22.2%
86 | Cc1cc(CN2CC[C@H]3C(=O)N(c4ccsc4)CCO[C@H]3C2)no1 | -9.15%
87 | c1cc(CN2CCCn3cnc(COCC4CC4)c3C2)co1 | -8.86%
88 | COc1cccc(N2CC3(CCN(Cc4nccn4C)C3)CC2=O)c1 (configuration not stated) | -16.5%

Row | Structure (SMILES) | cytotoxicity at 70.5 h
89 | CCN(CC)c1ncnc2c1CCN(CC1CCOCC1)CC2 | -16.3%
90 | O=C(C1CC=CC1)N1C[C@@H]2CN(Cc3ccsc3)CCO[C@@H]2C1 | -15.4%
91 | CN(C)[C@@H]1CCN(C(=O)c2ccco2)[C@H]1Cc1cnn(C)c1 | -12.7%
92 | O=C(c1ccncc1)N1CCc2ncnc(C3CC3)c2CC1 | -14.3%
93 | Cn1cc(N2CC3(CCN(Cc4nccn4C)C3)CC2=O)cn1 (configuration not stated) | -12.4%
94 | CN(C)c1ncnc2c1CCN(CC1CCOCC1)CC2 | -15%
95 | O=C(CCc1ccccc1)N1C[C@@H]2CN(Cc3ccoc3)CCO[C@@H]2C1 | -11.8%
96 | O=S1(=O)c2ccccc2C2(CCN(Cc3cccnc3)C2)N1CC1CC1 (configuration not stated) | -11.1%
97 | CN(Cc1ccco1)[C@@H]1CN(Cc2cnn(C)c2)[C@@H]2CCCO[C@H]12 | -12%
98 | CN(Cc1ccco1)[C@@H]1CN(CC2CCOCC2)[C@@H]2CCCO[C@H]12 | -11.5%
99 | O=C(c1ccncc1)N1CCCn2c(CN3CCCC3)nnc2C1 | -9.38%
100 | Cc1ccc(N2CCO[C@H]3CN(Cc4cc(C)on4)CC[C@H]3C2=O)cn1 | -9.06%
101 | COCCN1CCN(Cc2c(C)noc2C)Cc2cccnc21 | -4.72%
102 | O=C(NCc1cccnc1)[C@@H]1C[C@H]2[C@H](CCN2c2ncccn2)O1 | -3%
103 | O=C(NCc1cccnc1)[C@@H]1C[C@H]2[C@H](CCN2c2ncc(F)cn2)O1 | -4.83%
104 | O=C(NCc1cccnc1)[C@@H]1C[C@@H]2CCN(c3ncc(F)cn3)C[C@@H]2O1 | -12.2%
105 | O=C1CCC2(CCCN(Cc3nccs3)C2)N1CC1CC1 (configuration not stated) | 10.7%
106 | O=C(NCc1cccnc1)[C@@H]1CC[C@@H]2[C@@H](CCN2c2ncccn2)O1 | 15.1%
107 | Cc1ccc(N2CCO[C@H]3CN(Cc4cccs4)C[C@H]32)nn1 | 8.57%
